According to ChEMBL document CHEMBL1122462, “Potential antiatherosclerotic agents. 4. [(Functionalized-alkyl)amino]benzoic acid analogues of cetaben” (1983):

Tests used:
Rattus norvegicus [1] = assay: In vivo sterol lowering activity at dose of 0.10 % of the diet; type: functional
Rattus norvegicus [2] = assay: In vivo Triglyceride lowering activity at a dose of 0.10 % of the diet; type: functional
Rattus norvegicus [3] = assay: In vivo sterol lowering activity, dosed as 0.03 % of the diet; type: functional
Rattus norvegicus [4] = assay: In vivo Triglyceride lowering activity at dose as 0.03 % of the diet; type: functional
Rattus norvegicus [5] = assay: In vivo Triglyceride lowering activity at dose as 0.01 % of the diet; type: functional
[6] = biological target: T1, Sterol O-acyltransferase 1 (Rattus norvegicus) (UniProt O70536); assay: In vitro inhibitory activity against acyl coenzyme A:cholesterol acyltransferase; design: concentration or dose not given beside the values; conditions: concentration not given here
T1 sequence (whole entry): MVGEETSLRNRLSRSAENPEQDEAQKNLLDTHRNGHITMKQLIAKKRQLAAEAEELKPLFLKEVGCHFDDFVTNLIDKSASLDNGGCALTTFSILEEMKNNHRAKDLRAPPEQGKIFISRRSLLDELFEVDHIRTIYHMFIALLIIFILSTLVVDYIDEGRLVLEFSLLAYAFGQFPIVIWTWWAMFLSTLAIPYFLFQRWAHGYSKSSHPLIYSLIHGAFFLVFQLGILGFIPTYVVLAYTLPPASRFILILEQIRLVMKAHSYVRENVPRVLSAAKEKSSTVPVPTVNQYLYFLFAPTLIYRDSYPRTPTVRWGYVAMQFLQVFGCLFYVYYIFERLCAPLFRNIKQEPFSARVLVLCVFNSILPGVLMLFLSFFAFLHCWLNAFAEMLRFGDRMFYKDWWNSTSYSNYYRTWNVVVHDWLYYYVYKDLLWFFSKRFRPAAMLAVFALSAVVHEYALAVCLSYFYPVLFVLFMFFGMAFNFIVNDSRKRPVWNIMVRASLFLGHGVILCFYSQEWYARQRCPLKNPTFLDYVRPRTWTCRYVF

Rattus norvegicus [7] = assay: In vivo Sterol lowering activity at dose as 0.01% of the diet; type: functional

| Structure (SMILES) | serum sterol level, % of control (Rattus norvegicus [1]) | serum triglyceride level (% of control) (Rattus norvegicus [2]) | serum sterol level, percent of control (Rattus norvegicus [3]) | triglyceride lowering activity (Rattus norvegicus [4]) | serum triglyceride level (% of control) (Rattus norvegicus [5]) | inhibition [6] | serum sterol level, percent of control (Rattus norvegicus [7]) |
| --- | --- | --- | --- | --- | --- | --- | --- |
| CCCCCCCCCCCCCCCCN(CC(=O)OCC)c1ccc(C(=O)OC)cc1 | 104% | 104% | 100% | 97% | 113% | 11% | 106% |
| CCOC(=O)c1ccc(NCCCCCCCCCCCCC(C)(C)C)cc1 | <83% | 81% | <84% | 83% | 99% | 7% | <89% |
| CCOC(=O)c1ccc(NCCCCCCCCCCCCCCCC(F)(F)F)cc1 | <75% | <41% | <72% | <47% | <75% | 8% | <83% |
| CCOC(=O)c1ccc(NCCCCCCCCCCCCCCC(C)(C)C)cc1 | <68% | <44% | <78% | <71% | 79% | 5% | <69% |
| CCCCCCCCCCC(C)Nc1ccc(C(=O)O)cc1 (centres undefined) | 92% | <58% | <90% | <49% | <42% | < 51% | 94% |
| CCOC(=O)c1ccc(NCCCCCCCCCCCCCC[Si](C)(C)C)cc1 | <53% | <62% | <66% | <66% | <77% | < 50% | 84% |
| O=C(O)c1ccc(NCCCCCCCCCCCO)cc1 | 99% | 78% | 95% | 101% | 111% | < 30% | 93% |
| CCCCCCCCCCC(C#N)CCCCCNc1ccc(C(=O)OCC)cc1 (centres undefined) | 87% | <51% | 97% | <69% | <66% | < 69% | 100% |
| CCCCSCCCCCCCCCCCNc1ccc(C(=O)O)cc1 | <78% | <62% | 91% | <71% | 79% | < 40% | 91% |
| CC(C)CCCCCCCCCCCCCNc1ccc(C(=O)O)cc1 | <64% | <29% | <76% | <68% | 77% | < 63% | <89% |
| CCOC(=O)c1ccc(NCCC[Si](C)(C)C)cc1 | <77% | <54% | 86% | <63% | <60% | < 59% | 99% |
| O=C(O)c1ccc(NCCCCCCCCCCC(F)(F)F)cc1 | <69% | <56% | <80% | <57% | <57% | 22% | 92% |
| CCCCCC(=O)CCCCCCCCCCNc1ccc(C(=O)O)cc1 | <81% | <42% | 89% | <57% | <59% | < 33% | 93% |
| O=C(O)c1ccc(NCC(F)(F)C(F)(F)C(F)(F)C(F)(F)C(F)(F)C(F)(F)C(F)(F)F)cc1 | <59% | <31% | <66% | <40% | <51% | < 42% | <87% |
| O=C(O)c1ccc(NCCCCCCCCCCCCCCCCS)cc1 | 101% | <40% | 101% | <45% | 67% | < 38% | 96% |
| O=C(CCCCCCCCCCOc1ccc(C(=O)O)cc1)Nc1ccc(C(=O)O)cc1 | 100% | 93% | 93% | 106% | 116% | < 33% | 100% |
| COCCCCCCCCCCCCCCCCNc1ccc(C(=O)O)cc1 | <86% | <52% | 96% | <73% | 76% | < 43% | 97% |
| O=C(O)c1ccc(NCCCCCCCCCCCOc2ccc(C(=O)O)cc2)cc1 | 103% | 91% | 91% | 79% | 90% | < 36% | 103% |
| CCCCCCCCCCCCCCCC(=O)Nc1ccc(C(=O)O)cc1 | 112% | 105% | 118% | 94% | 103% | 16% | 111% |
| CC(C)CCCCCCCCCCCCCCNc1ccc(C(=O)O)cc1 | <44% | <29% | <67% | <50% | 76% | < 51% | <79% |
| CCCCCCCCCCCCCCCCN(C(=O)CCC(=O)O)c1ccc(C(=O)O)cc1 | 88% | 117% | 105% | 90% | 84% | 13% | 111% |
| CCCCCCCCCCC(=O)CCCCCNc1ccc(C(=O)O)cc1 | <84% | <46% | 90% | <68% | <63% | 18% | 95% |
| CCCCCCCCCCCCCCC(C)Nc1ccc(C(=O)OCC)cc1 (centres undefined) | 93% | <55% | 100% | <55% | 81% | < 18% | 107% |
| CCCCCCCCCCCCCCCCNc1ccc(C(=O)O)cc1 [CETABEN] | <54% | <31% | <71% | <45% | <71% | < 57% | <72% |
| CCCCCCCCCCC(N)CCCCCNc1ccc(C(=O)[O-])cc1.[Na+] (centres undefined) | 98% | 120% | 117% | 107% | 68% | 7% | 100% |
| O=C(O)c1ccc(NCCCCCCCCCCCC2CCCCC2)cc1 | 83% | <48% | 91% | <51% | 73% | < 56% | 95% |
| CCOC(=O)c1ccc(NCCCCCCCCCCCCCCCC(=O)O)cc1 | 106% | 147% | 106% | 133% | 99% | 4% | 100% |
